Source: PubChem BioAssay AID330 (DTP/NCI, 2004)
Where “and” joins values, the source holds several entries; their conditions need not be identical. Identical values can stand only once. Inconclusive results and toxic doses are left out. The calls were made as follows: active = survival T/C of 150% or more; inactive = T/C below 125% in these data.

Test system: P388 leukemia ip, CD2F1 mice, survival T/C
Assay: NCI In Vivo Anticancer Drug Screen. Data for tumor model P388 Leukemia (intraperitoneal) in CD2F1 (CDF1) mice
Conditions: endpoint: median survival time, higher = longer survival
Summary of the method: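 Mice carrying the transplanted tumor received test compound or vehicle. Survival was recorded in each group, and the value is the treated-group measurement divided by that of the vehicle-treated control group.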

[1] = dose: 12.5 mg/kg/injection, schedule: Q01DX001 (ip), vehicle: Klucel (hydroxypropylcellulose) (HPC)
[2] = dose: 25.0 mg/kg/injection, schedule: Q01DX001 (ip), vehicle: Klucel (hydroxypropylcellulose) (HPC)
[3] = dose: 50.0 mg/kg/injection, schedule: Q01DX005 (ip), vehicle: saline with Tween-80
[4] = dose: 100.0 mg/kg/injection, schedule: Q01DX005 (ip), vehicle: saline with Tween-80
[5] = dose: 200.0 mg/kg/injection, schedule: Q01DX005 (ip), vehicle: saline with Tween-80
[6] = dose: 60.0 mg/kg/injection, schedule: Q01DX005 (ip), vehicle: saline with Tween-80
[7] = dose: 120.0 mg/kg/injection, schedule: Q01DX005 (ip), vehicle: saline with Tween-80
[8] = dose: 240.0 mg/kg/injection, schedule: Q01DX005 (ip), vehicle: saline with Tween-80
[9] = dose: 100.0 mg/kg/injection, schedule: Q04DX002 (ip), vehicle: saline with Tween-80
[10] = dose: 200.0 mg/kg/injection, schedule: Q04DX002 (ip), vehicle: saline with Tween-80
[11] = dose: 400.0 mg/kg/injection, schedule: Q04DX002 (ip), vehicle: saline with Tween-80
[12] = dose: 50.0 mg/kg/injection, schedule: Q01DX009 (ip), vehicle: saline with Tween-80
[13] = dose: 100.0 mg/kg/injection, schedule: Q01DX009 (ip), vehicle: saline with Tween-80

Measured: T/C

O=[N+]([O-])C(Br)(CO)CCC(Br)(CO)[N+](=O)[O-] (stereo not drawn)
inactive: dose: 6.25 mg/kg/injection, schedule: Q01DX001 (ip), vehicle: Klucel (hydroxypropylcellulose) (HPC) 111 % of control | [1] 104 % of control | [2] 107 % of control

COC(=O)C1(c2ccccc2)N=NN=C1N(C)C (stereo not drawn)
inactive: [3] 98 % of control | [4] 106 % of control | [5] 110 % of control

CC(=NCCCCN=C(C)c1cc(O)cc(Br)c1O)c1cc(O)cc(Br)c1O.[Co]
inactive: [6] 90 % of control | [7] 98 % of control | [8] 94 % of control

N#CC(C(O)c1ccccc1)N1CCOCC1 (stereo not drawn)
inactive: dose: 50.0 mg/kg/injection, schedule: Q01DX009 (ip), vehicle: suspension in saline 102 % of control | dose: 100.0 mg/kg/injection, schedule: Q01DX009 (ip), vehicle: suspension in saline 109 % of control | dose: 200.0 mg/kg/injection, schedule: Q01DX009 (ip), vehicle: suspension in saline 94 % of control

COc1ccc(-c2cn3c([nH]c(=O)c4cc(Br)ccc43)c2C#N)cc1
inactive: [6] 91 % of control | [7] 93 % of control | [8] 87 % of control

COC(=O)C(C)(OCc1ccccc1)C(C)C1CO1 (stereo not drawn)
inactive: [3] 100 % of control | [4] 115 % of control | [5] 113 % of control

Cn1cnc2c(NCCO)ncnc21
inactive: [3] 118 % of control | [4] 100 % of control | [5] 103 % of control

C1=C(c2ccc(OCc3ccccc3)c(OCc3ccccc3)c2)CC2CCCCC2C1 (stereo not drawn)
inactive: [9] 93 % of control | [10] 93 % of control | [11] 111 % of control

CC(C)=CCC(OC(=O)C=C(C)C)c1cc(O)c2c(O)ccc(O)c2c1O.[Ni] (stereo not drawn)
inactive: [9] 111 % of control | [10] 105 % of control | [11] 114 % of control

OCC1c2ccc(Cl)cc2Nc2ccc(Cl)cc21 (stereo not drawn)
inactive: dose: 100.0 mg/kg/injection, schedule: Q01DX001 (ip), vehicle: saline with Tween-80 104 % of control | dose: 200.0 mg/kg/injection, schedule: Q01DX001 (ip), vehicle: saline with Tween-80 95 % of control | dose: 400.0 mg/kg/injection, schedule: Q01DX001 (ip), vehicle: saline with Tween-80 100 % of control

CCOc1c(N=Nc2ccccc2C)c(C)nn1C(=S)SC
inactive: dose: 60.0 mg/kg/injection, schedule: Q01DX005 (ip), vehicle: Klucel + Tween-80 95 % of control | dose: 120.0 mg/kg/injection, schedule: Q01DX005 (ip), vehicle: Klucel + Tween-80 92 % of control

Nc1nc(SCC(=O)O)[nH]c(=O)c1N
inactive: [3] 91 % of control | [4] 104 % of control | [5] 104 % of control

Cc1cc2c(cc1C)NC(=O)C(NC(=O)c1ccc(Cl)cc1)C=N2 (stereo not drawn)
inactive: dose: 60.0 mg/kg/injection, schedule: Q01DX005 (ip), vehicle: Klucel (hydroxypropylcellulose) (HPC) 92 % of control | dose: 120.0 mg/kg/injection, schedule: Q01DX005 (ip), vehicle: Klucel (hydroxypropylcellulose) (HPC) 93 % of control | dose: 240.0 mg/kg/injection, schedule: Q01DX005 (ip), vehicle: Klucel (hydroxypropylcellulose) (HPC) 93 % of control

O=S(=O)(O)CNc1cccc(Cl)c1
inactive: [12] 106 % of control | [13] 95 % of control | dose: 200.0 mg/kg/injection, schedule: Q01DX009 (ip), vehicle: saline with Tween-80 98 % of control

COC1CC(OC2CCC3(C)C(CCC45CCC(C6=CC(=O)OC6)C(C)(CCC43)C5=O)C2)OC(C)C1O (stereo not drawn)
inactive: dose: 1.56 mg/kg/injection, schedule: Q01DX005 (ip), vehicle: Klucel (hydroxypropylcellulose) (HPC) 90 % of control | dose: 3.12 mg/kg/injection, schedule: Q01DX005 (ip), vehicle: Klucel (hydroxypropylcellulose) (HPC) 97 % of control | dose: 6.25 mg/kg/injection, schedule: Q01DX005 (ip), vehicle: Klucel (hydroxypropylcellulose) (HPC) 100 % of control | dose: 12.5 mg/kg/injection, schedule: Q01DX005 (ip), vehicle: Klucel (hydroxypropylcellulose) (HPC) 88 % of control and 91 % of control

C(CSC1=NCCN1)CSC1=NCCN1
inactive: dose: 25.0 mg/kg/injection, schedule: Q01DX009 (ip), vehicle: saline 120 % of control | dose: 50.0 mg/kg/injection, schedule: Q01DX009 (ip), vehicle: saline 117 % of control

S=C1OCCO1
inactive: dose: 50.0 mg/kg/injection, schedule: Q01DX009 (ip), vehicle: Klucel (hydroxypropylcellulose) (HPC) 106 % of control | dose: 100.0 mg/kg/injection, schedule: Q01DX009 (ip), vehicle: Klucel (hydroxypropylcellulose) (HPC) 102 % of control | dose: 200.0 mg/kg/injection, schedule: Q01DX009 (ip), vehicle: Klucel (hydroxypropylcellulose) (HPC) 100 % of control | dose: 400.0 mg/kg/injection, schedule: Q01DX009 (ip), vehicle: Klucel (hydroxypropylcellulose) (HPC) 105 % of control

CC1(C)CC(OP(=[Se])(OC2CC(C)(C)N(O)C(C)(C)C2)N2CC2)CC(C)(C)N1O
inactive: [1] 102 % of control | [2] 105 % of control | dose: 50.0 mg/kg/injection, schedule: Q01DX001 (ip), vehicle: Klucel (hydroxypropylcellulose) (HPC) 106 % of control

COc1ccc(-c2sc(/N=C/c3cc(Br)cc(Br)c3O)c(C#N)c2C)cc1OC
inactive: dose: 12.5 mg/kg/injection, schedule: Q01DX009 (ip), vehicle: saline with Tween-80 103 % of control | dose: 25.0 mg/kg/injection, schedule: Q01DX009 (ip), vehicle: saline with Tween-80 97 % of control | [12] 99 % of control | [13] 94 % of control
